The values that follow come from US20130053430A1, “MODULATION OF CETP EXPRESSION” (Isis Pharmaceuticals, Inc., priority 2010, published 2013).

e = 2'-O-(2-methoxyethyl) (MOE); d = 2'-deoxy (DNA)

Data set [1] in a line: Effect on HDL composition in huCETP transgenic LDL receptor knockout mice (Example 10). It counts as in vivo. The following applies: HDL fraction; for FC % (free cholesterol component of HDL) / PL % (phospholipid component of HDL) / Pro % (protein component of HDL) / TG % (triglyceride component of HDL) / CE % (cholesteryl ester component of HDL): CETP transgenic LDLr−/− mouse model; for CE % (cholesteryl ester component of HDL): calculated as (total cholesterol−free cholesterol)×1.67; for S/C Ratio: surface components (Pro, FC, PL) to core components (CE, TG). An excerpt: In human CETP transgenic mice, the bulk of the cholesterol in plasma is associated with HDL and, in this model, cholesteryl ester (CE) transferred from HDL to VLDL/LDL by CETP is rapidly cleared by the LDL receptor (LDLr) (Zhou, H. et al., Biochim Biophys. Acta. 1761: 14821488, 2006). The human CETP transgenic, LDLr knockout mouse model used in this example is an animal model for cardiovascular disease. In this model, clearance of LDL is delayed due to the absence of LDLr leading to the inability of the mice to clear CE via the LDL pathway (Plump, A. S. et al., Arterioscler. Thromb. Vasc. Biol. 19: 1105-1110, 1999). This human CETP transgenic, LDLr knockout mouse is helpful in assessing the effect of antisense inhibition of CETP on HDL composition as the model has a proatherogenic lipoprotein profile where most of the cholesterol is found in VLDL and LDL.
Male transgenic mice were maintained on a 12-hour light/dark cycle and were fed ad libitum the Western diet (TD88137; 42% cal from fat, 0.2% cholesterol; Harlan Laboratories, Indianapolis, Ind.). Animals were acclimated for at least 7 days in the research facility before initiation of the experiment and were maintained on this diet throughout the study period. Antisense oligonucleotides (ASOs) were prepared in buffered saline (PBS) and sterilized by filtering through a 0.2 micron filter. Oligonucleotides were dissolved in 0.9% PBS for injection.
Another group received subcutaneous injections of control oligonucleotide ISIS 141923 at a dose of 15 mg/kg/week for 6 weeks. One group of mice received subcutaneous injections of PBS for 6 weeks. The PBS-injected group served as the control group to which treatment groups were compared.
At the end of the treatment period, plasma samples were taken for further analysis.
The VLDL+IDL, LDL and HDL lipoprotein sub-fractions were separated by ultracentrifugation, based on their relative densities. Pooled plasma samples from all the groups of […] each was added to a 2 mL Beckman Quick-Seal centrifuge tube and the density adjusted to 1.019 g/mL with potassium bromide (KBr). The samples were then spun in a Beckman TL-100 ultracentrifuge for 4 hours at 100,000 rpm at 4 degrees Celsius. The top of the tube containing the VLDL+IDL sub-fraction was sliced off and collected.
The bottom fraction was collected in a new tube; the density was re-adjusted to 1.063 g/ml with KBr and re-spun at 100,000 rpm at 4 degrees Celsius for 5 hours to concentrate the LDL sub-fraction. The top of the tube containing the LDL sub-fraction was collected. Once again, the bottom fraction was placed in a new tube and the density was now adjusted to 1.21 g/ml with KBr to concentrate the HDL sub-fraction. The tubes were spun at 100,000 rpm at 4 degrees Celsius for 6 hours. The HDL sub-fraction was finally collected. All of the lipoprotein sub-fractions were dialyzed overnight in PBS to remove excess KBr.
The sub-fractions were then assayed for total cholesterol and triglyceride (TG) using enzymatic assays from Roche (Basel, Switzerland). Phospholipid (PL) and free cholesterol (FC) were measured using enzymatic assays from Wako Chemicals USA (Richmond, Va.). Protein (Pro) concentration was measured by Fisher Scientific's BCA assay (Pittsburgh, Pa.). Cholesteryl ester (CE) was calculated as (total cholesterol−free cholesterol)×1.67 (CE is cholesterol plus a fatty acid, the 1.67 adjustment takes into account the increase in mass the fatty acid will add (Rudel L L et al, JCI 100 (1); 74-83)). The S/C ratio is the ratio of the surface components (Pro, FC, and PL) to the core components (CE and TG).
Additionally, the S/C ratio is increased, indicating a shift to a smaller HDL particle, after antisense oligonucleotide inhibition of CETP. Accordingly, in this model, inhibiting the CETP-mediated transfer of TG to HDL, and CE from HDL, leads to the formation of smaller, denser, and CE rich HDL.

Data set [2] is described as follows: Plasma glucose, dose response (Example 9). It counts as in vivo, mice. As to the method:
Another group received subcutaneous injections of control oligonucleotide ISIS 141923 at a dose of 50 mg/kg/week for 6 weeks. One group of mice received subcutaneous injections of PBS for 6 weeks. The PBS-injected group served as the control group to which treatment groups were compared.
Plasma glucose values were determined using a Beckman Glucose Analyzer II (Beckman Coulter) by a glucose oxidase method (Lott, J. A. et al., Clin. Chem. 21: 1754-1760, 1975).

The subject of data set [3] is human CETP mRNA. Briefly: Liver CETP mRNA in huCETP transgenic mice, normal chow (Example 5). Format: in vivo. To be noted: 50 mg/kg i.p. twice per week for 6 weeks, relative to PBS control. As to the method:
Male huCETP transgenic mice were maintained on a 12-hour light/dark cycle and fed ad libitum normal Purina mouse chow. Animals were acclimated for at least 7 days in the research facility before initiation of the experiment. Antisense oligonucleotides (ASOs) were prepared in buffered saline (PBS) and sterilized by filtering through a 0.2 micron filter. Oligonucleotides were dissolved in 0.9% PBS for injection.
The mice were divided into five treatment groups. The first four groups received intraperitoneal injections of ISIS 349511, ISIS 349512, ISIS 349515, or ISIS 349517 at a dose of 50 mg/kg twice per week for 6 weeks. The fifth group received intraperitoneal injections of saline twice weekly for 6 weeks.
Twenty four hours after the final dose, the animals were sacrificed and liver tissue was isolated. Liver RNA was isolated for real-time PCR analysis of CETP. Two primer probe sets, hCETP (forward sequence […], designated herein as SEQ ID NO: 118; reverse sequence […], designated herein as SEQ ID NO: 119; probe sequence TGCGGACCGATGCCCCTGAX, designated herein as SEQ ID NO: 120) and hCETP2_LTS00182 (forward sequence […], designated herein as SEQ ID NO: 38; reverse sequence GGCTCACGCCTTTGCTGTT, designated herein as SEQ ID NO: 39: probe sequence CGGCTCGAGGTAGTGTTTACAGCCCTCX, designated herein as SEQ ID NO: 40), were used. These primer probe sets target the CETP mRNA transcript at different regions. As presented in Table 7, treatment with antisense oligonucleotides reduced CETP mRNA expression. The primer probe sets were used individually and collectively to measure CETP mRNA expression and gave similar results in all three cases. The RNA expression levels were normalized to murine Cyclophilin, a house-keeping gene, which is constitutively expressed. Cyclophilin levels were measured using the primer probe set described in Table 2. The results are expressed as percent inhibition of CETP mRNA, relative to the PBS control.

As to “ISIS 141923: CCTTCCCTGAAGGTTCCTCC, 5-10-5 MOE gapmer, a control oligonucleotide which has no known murine target (sugars from the 5' end e5 d10 e5, backbone and methylation of C not given here) [reference compound]”, in data set [1], the “FC % (free cholesterol component of HDL)” value is listed as 3.1%, the “PL % (phospholipid component of HDL)” value was found to be 8.4%, the “Pro % (protein component of HDL)” value amounted to 24.8% and the “TG % (triglyceride component of HDL)” value is given as 47.1%. For the same substance, in data set [1], the “CE % (cholesteryl ester component of HDL)” value was 16.6% and the “S/C Ratio” value was 0.57. Also, the Glucose levels in data set [2] (50 mg/kg/wk, Week 0) amounted to 311 mg/dL. In data set [2] (50 mg/kg/wk, Week 3), this substance returned a Glucose levels of 256 mg/dL. Also, the Glucose levels in data set [2] (50 mg/kg/wk, Week 6) turned out to be 305 mg/dL.
Consider “ISIS 349517: 5-10-5 MOE gapmer CAGCACTTTAATGCCAGTGG (sugars from the 5' end e5 d10 e5, backbone and methylation of C not given here)”, for which the “FC % (free cholesterol component of HDL)” value in data set [1] was determined as 2.1%. Besides, the “PL % (phospholipid component of HDL)” value in data set [1] is 15.6%. Further, the “Pro % (protein component of HDL)” value in data set [1] is 31.3%. The “TG % (triglyceride component of HDL)” value in data set [1] is 12.8%. For the same substance, the “CE % (cholesteryl ester component of HDL)” value in data set [1] is 38.1%. Further, the “S/C Ratio” value in data set [1] amounted to 0.96. For the same substance, the “Percent inhibition of liver CETP mRNA expression, Combined primer probe sets” value in data set [3] is 97%. Besides, the “Percent inhibition of liver CETP mRNA expression, Primer probe set hCETP” value in data set [3] is on record as 99%. Moreover, the “Percent inhibition of liver CETP mRNA expression, Primer probe set hCETP2_LTS00182” value in data set [3] is given as 95%. The Glucose levels stood at 375 mg/dL in data set [2] (1.5 mg/kg/wk, Week 0); 288 mg/dL in data set [2] (1.5 mg/kg/wk, Week 3); 348 mg/dL in data set [2] (1.5 mg/kg/wk, Week 6); 354 mg/dL in data set [2] (5 mg/kg/wk, Week 0); 287 mg/dL in data set [2] (5 mg/kg/wk, Week 3); 346 mg/dL in data set [2] (5 mg/kg/wk, Week 6). For the same substance, the Glucose levels in data set [2] (15 mg/kg/wk, Week 0) turned out to be 339 mg/dL; in data set [2] (15 mg/kg/wk, Week 3) it was 271 mg/dL; in data set [2] (15 mg/kg/wk, Week 6) it was 329 mg/dL; in data set [2] (50 mg/kg/wk, Week 0), 339 mg/dL; in data set [2] (50 mg/kg/wk, Week 3), 269 mg/dL; in data set [2] (50 mg/kg/wk, Week 6), 255 mg/dL.
With “ISIS 349511: 5-10-5 MOE gapmer CCCGACCTCCTTGGAGACTT (sugars from the 5' end e5 d10 e5, backbone and methylation of C not given here)”, in data set [3], the “Percent inhibition of liver CETP mRNA expression, Combined primer probe sets” value worked out at 88%; the “Percent inhibition of liver CETP mRNA expression, Primer probe set hCETP” value is recorded as 90%; the “Percent inhibition of liver CETP mRNA expression, Primer probe set hCETP2_LTS00182” value came out at 86%.
